{
  "source": "patent US20190083462A1",
  "about": "“PREVENTION OF NSAID ENTEROPATHY WITH MICROBIOTA-DERIVED TRYPTOPHAN-METABOLITE” (THE TEXAS A&M UNIVERSITY SYSTEM, priority 2016, published 2019)",
  "key": {"C57BL/6J mice": {"tested_on": "C57BL/6J mice", "test": "Histology and small intestinal morphometric measurements", "type": "in vivo", "method": "Eight- to 10-week-old specific-pathogen-free C57BL/6J mice were purchased and allowed to acclimate for 2 weeks. Mice were fed standardized laboratory rodent diet and sterile water ad libitum. […] Mice were then rehoused on the basis of treatment group assignment, with 5 animals/group-cage. To induce NSAID enteropathy, mice in group 1 were gavaged once daily with indomethacin (5 mg/kg; for 7 days; Sigma Aldrich, St. Louis, Mo.) dissolved in dimethylysulfoxide (DMSO) (Sigma Aldrich, St. Louis, Mo.) and further diluted in phosphate buffered saline (PBS). […] All mice were gavaged with equal volumes (200 μL) and equal concentrations of DMSO (0.001%).\nFeces were collected daily by placing individual animals in sterile plastic cups that were RNase- and DNase-free until they passed feces. The mice were immediately returned to their home cages and the feces immediately flash frozen at −80° C. All animals were euthanized via CO2 asphyxiation on day 8 (i.e., after 7 days of treatment). The small intestine was harvested, opened longitudinally, rinsed with ice-cold PBS, and the distal ⅓ of the intestinal mucosa was scraped for tissue gene expression analysis. The remaining small intestine was fixed in 4% paraformaldehyde, Swiss-rolled, paraffin-embedded, and stained with hematoxylin and eosin.\nThe slides were scored as previously described for intestinal inflammation (Jia Q, Lupton J R, Smith R, Weeks B R, Callaway E, Davidson L A, Kim W, Fan Y Y, Yang P, Newman R A, et al. Reduced colitis-associated colon cancer in Fat-1 (n-3 fatty acid desaturase) transgenic mice. Cancer Research 2008; 68:3985-91). Briefly, mucosal injury was determined by the following parameters scored from 0 (no evidence) to 3 (marked): mucosal ulceration, mucosal erosion, and presence of squamified epithelium. Inflammatory changes were scored similarly based on the following parameters: lymphocytic infiltration, plasma cell infiltration, and neutrophilic infiltration. Finally, an overall evidence of injury score was used to document total injury graded from 0 (none) to 4 (marked). Morphological parameters were obtained from digitally scanned slides using SPOT vr 5.0 software. Three sets of measurements from 3 separate sections were recorded for each animal by an observer blinded to treatment group. Measurements consisted of villus height, crypt depth, and submucosal mural thickness."}, "[1]": {"tested_on": "CD11b- and GR-1-positive cells (i.e., neutrophils)", "test": "Flow cytometry of spleen and mesenteric lymph nodes", "type": "in vivo, mice", "conditions": "after 7 days of treatment", "procedure": "Eight- to 10-week-old specific-pathogen-free C57BL/6J mice were purchased and allowed to acclimate for 2 weeks. Mice were fed standardized laboratory rodent diet and sterile water ad libitum. […] Mice were then rehoused on the basis of treatment group assignment, with 5 animals/group-cage. To induce NSAID enteropathy, mice in group 1 were gavaged once daily with indomethacin (5 mg/kg; for 7 days; Sigma Aldrich, St. Louis, Mo.) dissolved in dimethylysulfoxide (DMSO) (Sigma Aldrich, St. Louis, Mo.) and further diluted in phosphate buffered saline (PBS). […] Sigma Aldrich, St. Louis, Mo.) dissolved in sterile water warmed to 55° C. […] All mice were gavaged with equal volumes (200 μL) and equal concentrations of DMSO (0.001%). Feces were collected daily by placing individual animals in sterile plastic cups that were RNase- and DNase-free until they passed feces. The mice were immediately returned to their home cages and the feces immediately flash frozen at -80° C. All animals were euthanized via CO2 asphyxiation on day 8 (i.e., after 7 days of treatment). […] Life Technologies, Carlsbad, Calif.), homogenized, and prepared as a single cell suspension for flow cytometric analysis as previously described (Wang […]. Measuring bacterial load and immune responses in mice infected with Listeria monocytogenes. Journal of Visualized Experiments: JoVE 2011). […]"}, "fecal microbiota": {"tested_on": "fecal microbiota", "test": "Fecal microbiota 16S rRNA sequencing (ANOSIM, SIMPER)", "type": "in vivo, mice"}, "[2]": {"conditions": "unweighted Unifrac distance metric, day 7"}},
  "note": "Marks after values point to notes of the source that are not given here.",
  "data": [
    {"molecule": "COc1ccc2c(c1)c(CC(=O)O)c(C)n2C(=O)c1ccc(Cl)cc1", "note": "[NSAID, indomethacin]", "values": [
      {"measurement": "microscopic pathology scores", "setting": "C57BL/6J mice; Swiss-rolled H & E stained small intestinal sections, n=5/group", "result": "significant difference from control"},
      {"measurement": "effect on the large intestine", "setting": "C57BL/6J mice; data not shown", "result": "negligible effect"},
      {"measurement": "ratio of villus height to crypt depth", "setting": "C57BL/6J mice; small intestinal mucosa", "result": "significantly decreased"},
      {"measurement": "percentage of CD11b- and GR-1-positive cells (neutrophils) in the mesenteric lymph nodes (MLN)", "setting": "[1]", "result": "significant increase"},
      {"measurement": "percentage of CD11b- and GR-1-positive cells (neutrophils) in the spleen", "setting": "[1]", "result": "significant increase"},
      {"measurement": "members of the Bacteroidales S24-7 family", "setting": "fecal microbiota; SIMPER, day 7 feces", "result": "gain"},
      {"measurement": "mean % abundance", "setting": "fecal microbiota; family Unassigned, Other, day 7 feces", "result": 0.00317, "unit": "%"},
      {"measurement": "mean % abundance", "setting": "fecal microbiota; family c_Bacilli, Other, day 7 feces", "result": 0, "unit": "%"},
      {"measurement": "mean % abundance", "setting": "fecal microbiota; family o_Actinomycetales, f_Micrococcaceae, day 7 feces", "result": 0.00951, "unit": "%"},
      {"measurement": "mean % abundance", "setting": "fecal microbiota; family o_Anaeroplasmatales, f_Anaeroplasmataceae, day 7 feces", "result": 0.0317, "unit": "%"},
      {"measurement": "mean % abundance", "setting": "fecal microbiota; family o_Bacillales, Other, day 7 feces", "result": 0.019, "unit": "%"},
      {"measurement": "mean % abundance", "setting": "fecal microbiota; family o_Bacillales, f_Bacillaceae, day 7 feces", "result": 0.00317, "unit": "%"},
      {"measurement": "mean % abundance", "setting": "fecal microbiota; family o_Bacillales, f_Staphylococcaceae, day 7 feces", "result": 0.019, "unit": "%"},
      {"measurement": "mean % abundance", "setting": "fecal microbiota; family o_Bacteroidale, f_Bacteroidaceae, day 7 feces", "result": 0.00634, "unit": "%"},
      {"measurement": "mean % abundance", "setting": "fecal microbiota; family o_Bacteroidales, f_Prevotellaceae, day 7 feces", "result": 0.00317, "unit": "%"},
      {"measurement": "mean % abundance", "setting": "fecal microbiota; family o_Bacteroidales, f_S24-7, day 7 feces", "result": 81.2, "unit": "%"},
      {"measurement": "mean % abundance", "setting": "fecal microbiota; family o_Clostridiales, Other, day 7 feces", "result": 0.00317, "unit": "%"},
      {"measurement": "mean % abundance", "setting": "fecal microbiota; family o_Clostridiales, f_ (unnamed), day 7 feces", "result": 7.67, "unit": "%"},
      {"measurement": "mean % abundance", "setting": "fecal microbiota; family o_Clostridiales, f_Clostridiaceae, day 7 feces", "result": 1.68, "unit": "%"},
      {"measurement": "mean % abundance", "setting": "fecal microbiota; family o_Clostridiales, f_Dehalobacteriaceae, day 7 feces", "result": 0.00634, "unit": "%"},
      {"measurement": "mean % abundance", "setting": "fecal microbiota; family o_Clostridiales, f_Lachnosoiraceae, day 7 feces", "result": 1.31, "unit": "%"},
      {"measurement": "mean % abundance", "setting": "fecal microbiota; family o_Clostridiales, f_Ruminococcaceae, day 7 feces", "result": 3.53, "unit": "%"},
      {"measurement": "mean % abundance", "setting": "fecal microbiota; family o_Clostridiales, f_[Mogibacteriaceae], day 7 feces", "result": 0.00634, "unit": "%"},
      {"measurement": "mean % abundance", "setting": "fecal microbiota; family o_Coriobacteriales, f_Coriobacteriaceae, day 7 feces", "result": 0.0381, "unit": "%"},
      {"measurement": "mean % abundance", "setting": "fecal microbiota; family o_Cytophagales, f_Cytophagacae, day 7 feces", "result": 0, "unit": "%"},
      {"measurement": "mean % abundance", "setting": "fecal microbiota; family o_Erysipelotrichales, f_Erysipelotrichaceae, day 7 feces", "result": 0.136, "unit": "%"},
      {"measurement": "mean % abundance", "setting": "fecal microbiota; family o_Lactobacillales, f_Aerococcaceae, day 7 feces", "result": 0, "unit": "%"},
      {"measurement": "mean % abundance", "setting": "fecal microbiota; family o_Lactobacillales, f_Enterococcaceae, day 7 feces", "result": 0.171, "unit": "%"},
      {"measurement": "mean % abundance", "setting": "fecal microbiota; family o_Lactobacillales, f_Lactobacillaceae, day 7 feces", "result": 2.48, "unit": "%"},
      {"measurement": "mean % abundance", "setting": "fecal microbiota; family o_Lactobacillales, f_Streptococcaceae, day 7 feces", "result": 0, "unit": "%"},
      {"measurement": "mean % abundance", "setting": "fecal microbiota; family o_RF 39, f_ (unnamed), day 7 feces", "result": 1.62, "unit": "%"},
      {"measurement": "mean % abundance", "setting": "fecal microbiota; family o_Turicibacterales, f_Turicibacteraceae, day 7 feces", "result": 0.0412, "unit": "%"},
      {"measurement": "abundance of members of the phyla Firmicutes and Bacteroidetes", "setting": "fecal microbiota; fecal 16S rRNA sequences, Day 0 vs Day 7", "result": "no significant difference"},
      {"measurement": "mean % abundance", "setting": "fecal microbiota; mouse, in vivo", "result": 0, "unit": "%"},
      {"measurement": "mean % abundance", "setting": "fecal microbiota; order Unassigned, Other, day 7 feces", "result": 0.00317, "unit": "%"},
      {"measurement": "mean % abundance", "setting": "fecal microbiota; order c_Mollicutes, o_RF39, day 7 feces", "result": 1.62, "unit": "%"},
      {"measurement": "mean % abundance", "setting": "fecal microbiota; order o_Actinomycetales, day 7 feces", "result": 0.00951, "unit": "%"},
      {"measurement": "mean % abundance", "setting": "fecal microbiota; order o_Anaeroplasmatales, day 7 feces", "result": 0.0317, "unit": "%"},
      {"measurement": "mean % abundance", "setting": "fecal microbiota; order o_Bacillales, day 7 feces", "result": 0.0412, "unit": "%"},
      {"measurement": "mean % abundance", "setting": "fecal microbiota; order o_Bacteroidales, day 7 feces", "result": 81.2, "unit": "%"},
      {"measurement": "mean % abundance", "setting": "fecal microbiota; order o_Clostridiales, day 7 feces", "result": 14.2, "unit": "%"},
      {"measurement": "mean % abundance", "setting": "fecal microbiota; order o_Coriobacteriales, day 7 feces", "result": 0.0381, "unit": "%"},
      {"measurement": "mean % abundance", "setting": "fecal microbiota; order o_Cytophagales, day 7 feces", "result": 0, "unit": "%"},
      {"measurement": "mean % abundance", "setting": "fecal microbiota; order o_Erysipelotrichales, day 7 feces", "result": 0.136, "unit": "%"},
      {"measurement": "mean % abundance", "setting": "fecal microbiota; order o_Lactobacillales, day 7 feces", "result": 2.65, "unit": "%"},
      {"measurement": "mean % abundance", "setting": "fecal microbiota; order o_Turicibacterales, day 7 feces", "result": 0.0412, "unit": "%"},
      {"measurement": "mean % abundance", "setting": "fecal microbiota; order p_Firmicutes, c_Bacilli, Other, day 7 feces", "result": 0, "unit": "%"},
      {"measurement": "mean % abundance", "setting": "fecal microbiota; phylum Unassigned, Other, day 7 feces", "result": 0.00317, "unit": "%"},
      {"measurement": "mean % abundance", "setting": "fecal microbiota; phylum k_Bacteria, Other, day 7 feces", "result": 0, "unit": "%"},
      {"measurement": "mean % abundance", "setting": "fecal microbiota; phylum k_Bacteria, p_Acidobacteria, day 7 feces", "result": 0.00317, "unit": "%"},
      {"measurement": "mean % abundance", "setting": "fecal microbiota; phylum k_Bacteria, p_Actinobacteria, day 7 feces", "result": 0.0476, "unit": "%"},
      {"measurement": "mean % abundance", "setting": "fecal microbiota; phylum k_Bacteria, p_Bacteroidetes, day 7 feces", "result": 81.2, "unit": "%"},
      {"measurement": "mean % abundance", "setting": "fecal microbiota; phylum k_Bacteria, p_Cyanobacteria, day 7 feces", "result": 0.00634, "unit": "%"},
      {"measurement": "mean % abundance", "setting": "fecal microbiota; phylum k_Bacteria, p_Firmicutes, day 7 feces", "result": 17.1, "unit": "%"},
      {"measurement": "mean % abundance", "setting": "fecal microbiota; phylum k_Bacteria, p_Proteobacteria, day 7 feces", "result": 0.00317, "unit": "%"},
      {"measurement": "mean % abundance", "setting": "fecal microbiota; phylum k_Bacteria, p_Tenericutes, day 7 feces", "result": 1.66, "unit": "%"},
      {"measurement": "mean % abundance", "setting": "fecal microbiota; phylum k_Bacteria, p_Verrucomicrobia, day 7 feces", "result": 0, "unit": "%"},
      {"measurement": "Pairwise ANOSIM R-value vs Control", "setting": "fecal microbiota; [2]", "result": "0.5487*"},
      {"measurement": "Pairwise ANOSIM R-value vs Indole", "setting": "fecal microbiota; [2]", "result": 0.2615},
      {"measurement": "Pairwise ANOSIM R-value vs NSAID + Indole", "setting": "fecal microbiota; [2]", "result": 0.4444}
    ]}
  ]
}
